Tested on: IL-15 induced P-STAT5 in human PBMC (total lymphocytes)
Test: PBMC IL-15 Induced P-STAT5
Assay type: cell-based
Conditions: Homo sapiens, PBMC, IL-15 stimulated, read-out: PBMC IL15-pSTAT5 IC50
Protocol: PBMC IL-15 Induced P-STAT5
Frozen human PBMC (200-250 million cells/vial) was thawed at 37° C. The cells were transferred to 10 mL warm medium in a 50-mL conical tube, and centrifuged at 1,200 RPM at room temperature for 5 min. The supernatant was aspirated. […] After adding 47 ml D-PBS (37° C.) to PBMC/FBS suspension, centrifuging at 1,200 RPM at room temperature for 5 min, and aspirating the supernatant, the cells were resuspended in 20 mL warm RPMI medium. Ninety μL of cell suspension were pipetted per well in a 96-well, deep-well, V-bottom plate, and the plate was incubated at 37° C. for 30 min. […] After adding 0.8 mL staining buffer per well, the plates were centrifuged at 1,200 RPM (Beckman GS-6R or Sorvall Legend) at room temperature for 5 min, and again the supernatant was aspirated using a 8-channel or 12-channel manifold. The plate was vortexed, and 0.35 mL 90% methanol/10% H2O (−20° C.) was added per well, and the plate incubated on ice for 20 min. After again adding 0.8 mL staining buffer per well, the plates were centrifuged at 1,200 RPM (Beckman GS-6R or Sorvall Legend) at room temperature for 5 min, and again the supernatant was aspirated using a 8-channel or 12-channel manifold, and then 0.8 mL Staining buffer was added per well. After once again adding 0.8 mL staining buffer per well, the plates were centrifuged at 1,200 RPM (Beckman GS-6R or Sorvall Legend) at room temperature for 5 min, and again the supernatant was aspirated using a 8-channel or 12-channel manifold. […] Samples of 250 μL/well were transferred to a 96-well U-bottom plate, and the FACS analysis was performed gating on total lymphocytes. Samples were analyzed using a BD Calibur™ or BD FACSCanto™ flow cytometer equipped with the BD High Throughput Sampler.

Question: With C#Cc1c[nH]c2ncnc(N3CC[C@H]4CCN(C(=O)C=C)C[C@H]43)c12 [Example 48, 1-[(3aS,7aS)-1-(5-ethynyl-7H-pyrrolo[2,3-d]pyrimidin-4-yl)octahydro-6H-pyrrolo[2,3-c]pyridin-6-yl]prop-2-en-1-one] as the compound, how does the IC50 read?
Answer: The IC50 was 65.2 nM.

Same assay, conditions: IL-15 stimulated, read-out: PBMC IL15-pSTAT5 IC50

Question: For C=CC(=O)N1CCC(Nc2cnc3[nH]cc(C(=O)NC(CC)C4(O)CCC4)c3n2)CC1 (centres unmarked) [Example 251b, 2-[(1-acryloylpiperidin-4-yl)amino]-N-[1-(1-hydroxycyclobutyl)propyl]-5H-pyrrolo[2,3-b]pyrazine-7-carboxamide], which IC50 is on record?
Answer: The IC50 was 1510 nM.

Question: How did the IC50 turn out when C=CC(=O)N1CCC(Nc2cnc3[nH]cc(C(=O)NCCCC#N)c3n2)CC1 [Example 242, 2-[(1-acryloylpiperidin-4-yl)amino]-N-(3-cyanopropyl)-5H-pyrrolo[2,3-b]pyrazine-7-carboxamide] was run?
Answer: The IC50 was 1100 nM.

Question: With C=CC(=O)N1CCC(Nc2cnc3[nH]cc(C(=O)N[C@H](C(C)C)[C@@H](O)C(F)(F)F)c3n2)CC1 [Example 248, 2-[(1-acryloylpiperidin-4-yl)amino]-N-[(2R,3R)-1,1,1-trifluoro-2-hydroxy-4-methylpentan-3-yl]-5H-pyrrolo[2,3-b]pyrazine-7-carboxamide] as the compound, how does the IC50 read?
Answer: The IC50 was 893 nM.

Question: For C=CC(=O)N1CCC[C@@H](Nc2ncnc3[nH]cc(CCO)c23)C1 [Example 55, (R)-1-(3-((5-(2-Hydroxyethyl)-7H-pyrrolo[2,3-d]pyrimidin-4-yl)amino)piperidin-1-yl)prop-2-en-1-one], which IC50 is on record?
Answer: The IC50 was 430 nM.

Question: Which IC50 does the source give for C=CC(=O)N1[C@H](C)CN(c2cnc3[nH]cc(C(=O)NC(C)C)c3n2)C[C@@H]1C [Example 306, 2-[(3R,5S)-4-acryloyl-3,5-dimethylpiperazin-1-yl]-N-(propan-2-yl)-5H-pyrrolo[2,3-b]pyrazine-7-carboxamide] here?
Answer: Its IC50 is 1090 nM.

Question: For C=CC(=O)N1CCC(Oc2cnc3[nH]cc(-c4cncc(F)c4)c3n2)CC1 [Example 213, 1-(4-{[7-(5-fluoropyridin-3-yl)-5H-pyrrolo[2,3-b]pyrazin-2-yl]oxy}piperidin-1-yl)prop-2-en-1-one], which IC50 is on record?
Answer: Its IC50 is 318 nM.

Question: Which IC50 does the source give for C=CC(=O)N1CCC(Nc2cnc3[nH]cc(-c4cncc(C#N)c4)c3n2)CC1 [Example 206, 5-{2-[(1-acryloylpiperidin-4-yl)amino]-5H-pyrrolo[2,3-b]pyrazin-7-yl}pyridine-3-carbonitrile] here?
Answer: The IC50 was 163 nM.

Question: C=CC(=O)N1CCN(c2cnc3[nH]cc(C(=O)NC(C)C)c3n2)[C@@H](CC)C1 [Example 325, 2-[(2S)-4-acryloyl-2-ethylpiperazin-1-yl]-N-(propan-2-yl)-5H-pyrrolo[2,3-b]pyrazine-7-carboxamide] was tested. Which IC50 did it give?
Answer: Its IC50 is 1560 nM.

Question: With C=CC(=O)N1CC[C@@H](Nc2cnc3[nH]cc(C(=O)NC(C)C)c3n2)[C@H](F)C1 [Example 291, 2-{[(3R,4R)-1-acryloyl-3-fluoropiperidin-4-yl]amino}-N-(propan-2-yl)-5H-pyrrolo[2,3-b]pyrazine-7-carboxamide] as the compound, how does the IC50 read?
Answer: Its IC50 is 168 nM.

Question: For C=CC(=O)N1CCC(Oc2cnc3[nH]cc(-c4ccc(F)nc4)c3n2)CC1 [Example 226, 1-(4-{[7-(6-fluoropyridin-3-yl)-5H-pyrrolo[2,3-b]pyrazin-2-yl]oxy}piperidin-1-yl)prop-2-en-1-one], which IC50 is on record?
Answer: The IC50 was 699 nM.

Question: Which IC50 does the source give for C=CC(=O)N1CCC(Nc2cnc3[nH]cc(C(=O)NCC4(O)CCC4)c3n2)CC1 [Example 231, 2-[(1-acryloylpiperidin-4-yl)amino]-N-[(1-hydroxycyclobutyl)methyl]-5H-pyrrolo[2,3-b]pyrazine-7-carboxamide] here?
Answer: Its IC50 is 3620 nM.

Question: For C=CC(=O)N1CCN(c2cnc3[nH]cc(C(=O)NC(C)C)c3n2)C[C@H]1C(C)C [Example 294, 2-[(3R)-4-acryloyl-3-(propan-2-yl)piperazin-1-yl]-N-(propan-2-yl)-5H-pyrrolo[2,3-b]pyrazine-7-carboxamide], which IC50 is on record?
Answer: The IC50 was 1000 nM.

Question: Which IC50 does the source give for C=CC(=O)N1CCC[C@@H](Nc2ncnc3[nH]cc(-c4ccccc4O)c23)C1 [Example 25, 1-[(3R)-3-{[5-(2-hydroxyphenyl)-7H-pyrrolo[2,3-d]pyrimidin-4-yl]amino}piperidin-1-yl]prop-2-en-1-one] here?
Answer: The IC50 was 84 nM.

Source: US11111242B2, “Pyrrolo[2,3-d]pyrimidinyl, pyrrolo[2,3-b]pyrazinyl and pyrrolo[2,3-d]pyridinyl acrylamides” (Pfizer Inc., priority 2013, dated 2021)
